System: Leptosphaeria nodorum (LEPTNO)
Test: In vitro fungitoxicity of hydrazones with and without copper towards Leptosphaeria nodorum (Example 26)
Assay type: cell-based
Settings: Parastagonospora nodorum, 72 h, copper-minus medium; test compound Concn. 0.05 μg/mL; 72 h at 25° C.; read-out: LEPTNO % Inhn. Minus Copper Observed

Row | SMILES | inhibition of growth at 0.05 µg/mL [%]
1 | O=C(N/N=C/c1ccc(Cl)cc1O)c1ccc(Cl)cc1 [Example 392] | 15.8
2 | O=C(N/N=C/c1c(O)cccc1Cl)c1ccc([N+](=O)[O-])cc1 [Example 405] | 2.8
3 | O=C(N/N=C/c1cccc(Cl)c1O)c1cccc(Cl)c1 [Example 427] | 26.1
4 | O=C(N/N=C/c1cc(C(F)(F)F)ccc1O)c1ccccc1O [Example 443] | 14.6
5 | O=C(N/N=C/c1c(C(F)(F)F)ccc(Cl)c1O)c1ccccc1O [Example 455] | 16.7
6 | C/C(=N\NC(=O)c1ccc(Cl)cc1)c1cc(F)cc(F)c1O [Example 578] | 7.2

Same assay, conditions: copper-plus medium (CuCl2 10 μM); test compound Concn. 0.05 μg/mL; 72 h at 25° C.

Row | SMILES | LEPTNO % Inhn. Plus Copper Observed [%]
7 | O=C(N/N=C/c1ccc(Cl)cc1O)c1ccc(Cl)cc1 [Example 392] | 97.9
8 | O=C(N/N=C/c1c(O)cccc1Cl)c1ccc([N+](=O)[O-])cc1 [Example 405] | 96.2
9 | O=C(N/N=C/c1cccc(Cl)c1O)c1cccc(Cl)c1 [Example 427] | 97.9
10 | O=C(N/N=C/c1cc(C(F)(F)F)ccc1O)c1ccccc1O [Example 443] | 100.0
11 | O=C(N/N=C/c1c(C(F)(F)F)ccc(Cl)c1O)c1ccccc1O [Example 455] | 100.0
12 | C/C(=N\NC(=O)c1ccc(Cl)cc1)c1cc(F)cc(F)c1O [Example 578] | 98.0

System: Phytophthora infestans
Test: not given
Assay type: in vivo, Phytophthora infestans on tomato
Settings: hydrazone 50 ppm with 50 μM CuCl2.2H2O, applied 24 h before inoculation; assessed 7 days after inoculation; tomato late blight

Row | SMILES | TLB % Control [%]
13 | O=C(N/N=C/c1ccc(Cl)cc1O)c1ccc(Cl)cc1 [Example 392] | 46.0
14 | O=C(N/N=C/c1c(O)cccc1Cl)c1ccc([N+](=O)[O-])cc1 [Example 405] | 98.0
15 | O=C(N/N=C/c1cccc(Cl)c1O)c1cccc(Cl)c1 [Example 427] | 98.0
16 | O=C(N/N=C/c1cc(C(F)(F)F)ccc1O)c1ccccc1O [Example 443] | 83.0
17 | O=C(N/N=C/c1c(C(F)(F)F)ccc(Cl)c1O)c1ccccc1O [Example 455] | 100.0
18 | C/C(=N\NC(=O)c1ccc(Cl)cc1)c1cc(F)cc(F)c1O [Example 578] | 100.0

System: Phytophthora capsici
Test: In vitro fungitoxicity of hydrazones with and without copper towards Phytophthora capsici (Example 28, Table 3)
Assay type: cell-based
Settings: 0.050 μg/mL; copper-plus AS medium (CuCl2, 50 μM); 48 h

Row | SMILES | % Inhn Plus copper Observed [%]
19 | O=C(N/N=C/c1c(O)cccc1Cl)c1ccc([N+](=O)[O-])cc1 [Example 405] | 85.9
20 | O=C(N/N=C/c1cccc(Cl)c1O)c1cccc(Cl)c1 [Example 427] | 88.6
21 | O=C(N/N=C/c1cc(C(F)(F)F)ccc1O)c1ccccc1O [Example 443] | 91.2
22 | O=C(N/N=C/c1c(C(F)(F)F)ccc(Cl)c1O)c1ccccc1O [Example 455] | 30.8
23 | C/C(=N\NC(=O)c1ccc(Cl)cc1)c1cc(F)cc(F)c1O [Example 578] | 90.4

Same assay, conditions: Phytophthora capsici; 0.050 μg/mL; copper-minus AS medium; 48 h; read-out: % Inhn Minus copper Observed

Row | SMILES | inhibition of growth at 0.05 µg/mL [%]
24 | O=C(N/N=C/c1c(O)cccc1Cl)c1ccc([N+](=O)[O-])cc1 [Example 405] | 0.6
25 | O=C(N/N=C/c1cccc(Cl)c1O)c1cccc(Cl)c1 [Example 427] | 9.1
26 | O=C(N/N=C/c1cc(C(F)(F)F)ccc1O)c1ccccc1O [Example 443] | 2.4
27 | O=C(N/N=C/c1c(C(F)(F)F)ccc(Cl)c1O)c1ccccc1O [Example 455] | 0
28 | C/C(=N\NC(=O)c1ccc(Cl)cc1)c1cc(F)cc(F)c1O [Example 578] | 2.8

System: Ustilago maydis
Test: In vitro fungitoxicity of hydrazones with and without copper towards Ustilago maydis (Example 29, Table 4)
Assay type: cell-based
Settings: 1 μg/mL; copper-plus medium (CuCl2, 10 μM); 48 h

Row | SMILES | % Inhn. Plus copper Observed [%]
29 | O=C(N/N=C/c1c(O)cccc1Cl)c1ccc([N+](=O)[O-])cc1 [Example 405] | 90.0
30 | O=C(N/N=C/c1cccc(Cl)c1O)c1cccc(Cl)c1 [Example 427] | 89.3
31 | O=C(N/N=C/c1cc(C(F)(F)F)ccc1O)c1ccccc1O [Example 443] | 35.3
32 | O=C(N/N=C/c1c(C(F)(F)F)ccc(Cl)c1O)c1ccccc1O [Example 455] | 96.0
33 | C/C(=N\NC(=O)c1ccc(Cl)cc1)c1cc(F)cc(F)c1O [Example 578] | 93.8

Same assay, conditions: Mycosarcoma maydis; 1 μg/mL; copper-minus medium; 48 h; read-out: % Inhn. Minus copper Observed

Row | SMILES | inhibition of growth at 1 µg/mL [%]
34 | O=C(N/N=C/c1c(O)cccc1Cl)c1ccc([N+](=O)[O-])cc1 [Example 405] | 9.6
35 | O=C(N/N=C/c1cccc(Cl)c1O)c1cccc(Cl)c1 [Example 427] | 34.3
36 | O=C(N/N=C/c1cc(C(F)(F)F)ccc1O)c1ccccc1O [Example 443] | 10.2
37 | O=C(N/N=C/c1c(C(F)(F)F)ccc(Cl)c1O)c1ccccc1O [Example 455] | 0
38 | C/C(=N\NC(=O)c1ccc(Cl)cc1)c1cc(F)cc(F)c1O [Example 578] | 47.4

System: Septoria tritici isolate USA-184
Test: In vitro fungitoxicity of hydrazones with and without copper towards Septoria tritici (Example 30, Table 5)
Assay type: cell-based
Settings: Zymoseptoria tritici; 0.05 μg/mL; Colby formula; CuCl2; read-out: % Inhibition Plus copper Predicted

Row | SMILES | inhibition at 0.05 µg/mL [%]
39 | O=C(N/N=C/c1c(O)cccc1Cl)c1ccc([N+](=O)[O-])cc1 [Example 405] | 18.8
40 | O=C(N/N=C/c1cccc(Cl)c1O)c1cccc(Cl)c1 [Example 427] | 43.8
41 | O=C(N/N=C/c1cc(C(F)(F)F)ccc1O)c1ccccc1O [Example 443] | 5.8
42 | O=C(N/N=C/c1c(C(F)(F)F)ccc(Cl)c1O)c1ccccc1O [Example 455] | 27.5
43 | C/C(=N\NC(=O)c1ccc(Cl)cc1)c1cc(F)cc(F)c1O [Example 578] | 26.7

Same assay, conditions: Zymoseptoria tritici; 0.05 μg/mL; copper-minus medium; 90 h; read-out: % Inhibition Minus copper Observed

Row | SMILES | inhibition at 0.05 µg/mL [%]
44 | O=C(N/N=C/c1c(O)cccc1Cl)c1ccc([N+](=O)[O-])cc1 [Example 405] | 18.8
45 | O=C(N/N=C/c1cccc(Cl)c1O)c1cccc(Cl)c1 [Example 427] | 43.8
46 | O=C(N/N=C/c1cc(C(F)(F)F)ccc1O)c1ccccc1O [Example 443] | 5.8
47 | O=C(N/N=C/c1c(C(F)(F)F)ccc(Cl)c1O)c1ccccc1O [Example 455] | 27.5
48 | C/C(=N\NC(=O)c1ccc(Cl)cc1)c1cc(F)cc(F)c1O [Example 578] | 26.7

Same assay, conditions: Zymoseptoria tritici; 0.05 μg/mL; copper-plus medium CuCl2; 90 h; read-out: % Inhibition Plus copper Observed

Row | SMILES | inhibition at 0.05 µg/mL [%]
49 | O=C(N/N=C/c1c(O)cccc1Cl)c1ccc([N+](=O)[O-])cc1 [Example 405] | 89.9
50 | O=C(N/N=C/c1cccc(Cl)c1O)c1cccc(Cl)c1 [Example 427] | 96.7
51 | O=C(N/N=C/c1cc(C(F)(F)F)ccc1O)c1ccccc1O [Example 443] | 92
52 | O=C(N/N=C/c1c(C(F)(F)F)ccc(Cl)c1O)c1ccccc1O [Example 455] | 92.4
53 | C/C(=N\NC(=O)c1ccc(Cl)cc1)c1cc(F)cc(F)c1O [Example 578] | 90.7

System: Leptosphaeria nodorum (LEPTNO)
Test: Isolated metal-hydrazone complexes versus parent hydrazones, in vitro, Leptosphaeria nodorum (Example 31, Table 7)
Assay type: cell-based
Settings: Parastagonospora nodorum; 0.1 μg/mL; copper-minus medium; 72 h

Row | SMILES | inhibition at 0.1 µg/mL [%]
54 | O=C(N/N=C/c1ccc(Cl)cc1O)c1ccc(Cl)cc1 [Example 392] | 22.8

System: not given
Test: not given
Settings: not given

Row | SMILES | melting point [°C]
55 | O=C(N/N=C/c1c(O)cccc1Cl)c1ccc([N+](=O)[O-])cc1 [Example 405] | > 300
56 | O=C(N/N=C/c1cccc(Cl)c1O)c1cccc(Cl)c1 [Example 427] | 174 to 178
57 | O=C(N/N=C/c1cc(C(F)(F)F)ccc1O)c1ccccc1O [Example 443] | 277 to 281
58 | O=C(N/N=C/c1c(C(F)(F)F)ccc(Cl)c1O)c1ccccc1O [Example 455] | 278 to 280
59 | C/C(=N\NC(=O)c1ccc(Cl)cc1)c1cc(F)cc(F)c1O [Example 578] | 276 to 280
